Measured values reported in patent publication US20020035061A1, “COMPOSITIONS AND METHODS FOR TREATING INFECTIONS USING CATIONIC PEPTIDES ALONE OR IN COMBINATION WITH ANTIBIOTICS” (priority 1996, published 2002).
Like-named read-outs stand apart in the source and are kept apart here.

Legend:
Assay type in all cases: cell-based
[1] = tested on: A. calcoaceticus
[2] = tested on: E. cloacae
[3] = tested on: E. coli
[4] = tested on: E. faecalis
[5] = tested on: K. pneumoniae
[6] = tested on: P. aeruginosa
[7] = tested on: S. aureus
[8] = tested on: S. epidermidis
[9] = tested on: S. maltophilia
[10] = tested on: S. marcescens

Row | Sequence | MIC ([1]; A. calcoaceticus AC002) [µg/mL] | MIC ([2]; E. cloacae ECL007) [µg/mL] | MIC ([3]; E. coli ECO005) [µg/mL] | MIC ([4]; E. faecalis EFS001) [µg/mL] | MIC ([4]; E. faecalis EFS008) [µg/mL] | MIC ([5]; K. pneumoniae KP001) [µg/mL] | MIC ([6]; P. aeruginosa PA004) [µg/mL] | MIC ([7]; S. aureus SA014) [µg/mL] | MIC ([7]; S. aureus SA093) [µg/mL] | MIC ([8]; S. epidermidis SE010) [µg/mL] | MIC ([9]; S. maltophilia SMA002) [µg/mL] | MIC ([10]; S. marcescens SMS003) [µg/mL] | MIC ([1]; A. calcoaceticus strain AC002) [µg/mL] | MIC ([2]; E. cloacae strain ECL007) [µg/mL] | MIC ([3]; E. coli strain ECO005) [µg/mL] | MIC ([5]; K. pneumoniae strain KP001) [µg/mL] | MIC ([6]; P. aeruginosa strain PA004) [µg/mL] | MIC ([8]; S. epidermidis strain SE010) [µg/mL] | MIC ([9]; S. maltophilia strain SMA002) [µg/mL] | MIC ([10]; S. marcescens strain SMS003) [µg/mL] | further results
1 | CLRWPWWPWRRK [MBI 11D19CN] | 8 | >128 | 32 | 4 | 64 | 32 | 128 | 4 | 2 | 8 | 64 | >128 | – | – | – | – | – | – | – | – | –
2 | ILRWPWAPWRRK [MBI 11H07CN] | 8 | >128 | 32 | 4 | 16 | 128 | >128 | 8 | 2 | 16 | 128 | >128 | – | – | – | – | – | – | – | – | –
3 | ILKKNPNNPRRK [MBI 11G6ACN] | – | – | – | – | – | – | – | – | – | – | – | – | 4 | >128 | 64 | >128 | >128 | 32 | >128 | >128 | MIC ([4]; E. faecalis strain EFS008): >128 µg/mL; MIC ([7]; S. aureus strain SA014): 64 µg/mL
4 | ILRWPWWAWRRK [MBI 11H08CN] | 4 | >128 | 8 | 2 | 8 | 32 | >128 | 4 | 1 | 4 | 32 | >128 | – | – | – | – | – | – | – | – | –
5 | ILRYVYYVYRRK [MBI 11A8CN] | – | – | – | – | – | – | – | – | – | – | – | – | 8 | >128 | 32 | 128 | >128 | 16 | 32 | >128 | MIC ([4]; E. faecalis strain EFS001): 4 µg/mL; MIC ([7]; S. aureus strain SA093): 1 µg/mL
6 | WWRWPWWPWRRK [MBI 11A10CN] | – | – | – | – | – | – | – | – | – | – | – | – | 4 | 64 | 16 | 16 | 64 | 4 | 32 | >128 | MIC ([4]; E. faecalis strain EFS001): 4 µg/mL; MIC ([4]; E. faecalis strain EFS008): 16 µg/mL; MIC ([7]; S. aureus strain SA014): 4 µg/mL; MIC ([7]; S. aureus strain SA093): 2 µg/mL
7 | ILRWWVWWVWWRRK [MBI 11F6CN] | 16 | 64 | 32 | 16 | 16 | 32 | 128 | 16 | 8 | 8 | 64 | >128 | – | – | – | – | – | – | – | – | –
8 | ILRWPWWPWRAK [MBI 11H11CN] | 4 | >128 | 16 | 2 | 8 | 16 | >128 | 4 | 1 | 4 | 64 | >128 | – | – | – | – | – | – | – | – | –
9 | ALRWPWWPWRRK [MBI 11H01CN] | 2 | >128 | 8 | 2 | 8 | 8 | 128 | 2 | 1 | 2 | 32 | >128 | – | – | – | – | – | – | – | – | –
